Values quoted from earlier work, collected in US6048869A, “Tricyclic compounds” (Merck & Co., Inc., priority 1999, dated 2000).

Experiments:
5α-reductase 1 = conditions: isozyme predominating in sebaceous glands of facial and skin tissue; Harris et al. 1992

- sensitivity of type 1 5α-reductase to finasteride (5α-reductase 1): relatively insensitive
- inhibition of the human prostate enzyme (5α-reductase 2; human prostate enzyme): potent inhibitor
- inhibition of type 2 5α-reductase (5α-reductase 2; isozyme predominating in the prostate): potently inhibited
SMILES: CC(C)(C)NC(=O)[C@H]1CC[C@H]2[C@@H]3CC[C@H]4NC(=O)C=C[C@]4(C)[C@H]3CC[C@]12C [Finasteride, 17,-(N-tert-butylcarbamoyl)-3-oxo-4-aza-5 α-androst-1-ene-3-one]
